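Dose response: 5 concentrations. Exposure: 48 h. Format: 96-well plates. Endpoint: linear interpolation; highest concentration if not reached. GI50 = concentration required for 50% inhibition of growth.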 Activity calls are given as the source filed them. No stated cut-off is given here; in the data, active = GI50 up to about 1.1 µM and inactive = higher.
Legend:
Assay in all cases: NCI anticancer screen, dose series, 48 h
DU-145 = system: DU-145
OVCAR-3 = system: OVCAR-3
A549 = system: A549
UACC-62 = system: UACC-62
OVCAR-4 = system: OVCAR-4
T47D = system: T47D
ACHN = system: ACHN
TK-10 = system: TK-10
NCI-H460 = system: NCI-H460
CAKI-1 = system: CAKI-1
SNB-19 = system: SNB-19
CCRF-CEM = system: CCRF-CEM
UACC-257 = system: UACC-257
SF-295 = system: SF-295
EKVX = system: EKVX
PC-3 = system: PC-3
HCT-116 = system: HCT-116
SK-MEL-5 = system: SK-MEL-5
OVCAR-8 = system: OVCAR-8
MCF7 = system: MCF7

SMILES | GI50 (DU-145) | GI50 (OVCAR-3) | GI50 (A549) | GI50 (UACC-62) | GI50 (OVCAR-4) | GI50 (T47D) | GI50 (ACHN) | GI50 (TK-10) | GI50 (NCI-H460) | GI50 (CAKI-1) | GI50 (SNB-19) | GI50 (CCRF-CEM) | GI50 (UACC-257) | GI50 (SF-295) | GI50 (EKVX) | GI50 (PC-3) | GI50 (HCT-116) | GI50 (SK-MEL-5) | GI50 (OVCAR-8) | GI50 (MCF7)
O=C(CCN1CCOCC1)Nc1ccc2sc3ccccc3c(=O)c2n1 | 47 µM (inactive) | 47.9 µM (inactive) | 38.9 µM (inactive) | 34.8 µM (inactive) | 61.1 µM (inactive) | 20.6 µM (inactive) | 35.5 µM (inactive) | 37.4 µM (inactive) | 37.8 µM (inactive) | 23.6 µM (inactive) | 49.2 µM (inactive) | 19.7 µM (inactive) | 62.2 µM (inactive) | 82.4 µM (inactive) | 58.2 µM (inactive) | 18.2 µM (inactive) | 23 µM (inactive) | 27.1 µM (inactive) | 35.9 µM (inactive) | 49.8 µM (inactive)
COc1ccc(S(=O)(=O)N/N=C/C(=O)O)cc1 | 327 µM (inactive) | 495 µM (inactive) | 849 µM (inactive) | 327 µM (inactive) | 524 µM (inactive) | 695 µM (inactive) | 354 µM (inactive) | 832 µM (inactive) | 359 µM (inactive) | 458 µM (inactive) | 706 µM (inactive) | 176 µM (inactive) | 849 µM (inactive) | 465 µM (inactive) | 1160 µM (inactive) | 389 µM (inactive) | 445 µM (inactive) | 400 µM (inactive) | 499 µM (inactive) | 409 µM (inactive)
N#CCCN(CCCN(C(=O)Nc1ccccc1)c1ccccc1)C(=O)Nc1ccccc1 | > 100 µM (inactive) | > 100 µM (inactive) | 78.9 µM (inactive) | > 100 µM (inactive) | > 100 µM (inactive) | > 100 µM (inactive) | > 100 µM (inactive) | > 100 µM (inactive) | 77.4 µM (inactive) | 15 µM (inactive) | 64.3 µM (inactive) | 33.7 µM (inactive) | > 100 µM (inactive) | > 100 µM (inactive) | > 100 µM (inactive) | 73.3 µM (inactive) | > 100 µM (inactive) | > 100 µM (inactive) | > 100 µM (inactive) | 84.5 µM (inactive)
O=P1(O)c2ccccc2Nc2cc(C(F)(F)F)ccc21 | > 100 µM (inactive) | > 100 µM (inactive) | > 100 µM (inactive) | > 100 µM (inactive) | > 100 µM (inactive) | > 100 µM (inactive) | > 100 µM (inactive) | > 100 µM (inactive) | > 100 µM (inactive) | > 100 µM (inactive) | > 100 µM (inactive) | > 100 µM (inactive) | > 100 µM (inactive) | > 100 µM (inactive) | > 100 µM (inactive) | > 100 µM (inactive) | > 100 µM (inactive) | > 100 µM (inactive) | > 100 µM (inactive) | > 100 µM (inactive)
CCOC(=O)/C=C(\C(=O)OCC)n1ccc(=O)n(Cc2cn(CCCCOC(C)=O)nn2)c1=O | 20.5 µM (inactive) | 12.7 µM (inactive) | 21.9 µM (inactive) | 16.1 µM (inactive) | 19.4 µM (inactive) | 5.36 µM (inactive) | 5.33 µM (inactive) | 6.4 µM (inactive) | 13.6 µM (inactive) | 4.25 µM (inactive) | > 39.7 µM (inactive) | 1.28 µM (inactive) | 17.4 µM (inactive) | 35.9 µM (inactive) | 13 µM (inactive) | 17.1 µM (inactive) | 11.2 µM (inactive) | 20.5 µM (inactive) | 7.01 µM (inactive) | 7.69 µM (inactive)
CC[C@H]1C=CCC[C@@]2(C[C@@H]3CC[C@@H]4[C@H](C(=O)OCCCCCCCCCCCCCCCC(=O)N(CCCNC(C)=O)C[C@H](CCNC(C)=O)OC(C)=O)[C@]5(CCC[C@@H](C)O5)NC(=[N+]34)N2)O1 | 0.0918 µM (active) | 0.158 µM (active) | 0.215 µM (active) | 0.0752 µM (active) | 0.183 µM (active) | 0.249 µM (active) | 0.382 µM (active) | 0.759 µM (active) | 0.131 µM (active) | 0.561 µM (active) | 0.533 µM (active) | 0.00184 µM (active) | 0.0281 µM (active) | 0.391 µM (active) | 0.392 µM (active) | 0.0349 µM (active) | 0.0405 µM (active) | 0.124 µM (active) | 0.614 µM (active) | 0.0861 µM (active)
C#CCn1c(=O)ccn(/C(=C/C(=O)OCC)C(=O)OCC)c1=O | 13.8 µM (inactive) | 6.35 µM (inactive) | 17.2 µM (inactive) | 14 µM (inactive) | 4.62 µM (inactive) | 2.67 µM (inactive) | 1.59 µM (inactive) | 1.77 µM (inactive) | 2.69 µM (inactive) | 1.58 µM (inactive) | 19 µM (inactive) | 0.61 µM (active) | 15 µM (inactive) | 24.6 µM (inactive) | 5.62 µM (inactive) | 14.2 µM (inactive) | 6.15 µM (inactive) | 14.5 µM (inactive) | 2.2 µM (inactive) | 3.18 µM (inactive)
O=C(O)CCc1nc2cc3ccccc3cc2[nH]c1=O | > 100 µM (inactive) | > 100 µM (inactive) | > 100 µM (inactive) | > 100 µM (inactive) | > 100 µM (inactive) | > 100 µM (inactive) | > 100 µM (inactive) | > 100 µM (inactive) | > 100 µM (inactive) | > 100 µM (inactive) | > 100 µM (inactive) | > 100 µM (inactive) | > 100 µM (inactive) | > 100 µM (inactive) | > 100 µM (inactive) | > 100 µM (inactive) | > 100 µM (inactive) | > 100 µM (inactive) | > 100 µM (inactive) | 65.6 µM (inactive)
CC[C@@H](/C=C\CCC1(C[C@H](O)CCC=C(C)C)OCCO1)O[Si](C(C)C)(C(C)C)C(C)C | 30 µM (inactive) | 19 µM (inactive) | 33.2 µM (inactive) | 22.6 µM (inactive) | 50.8 µM (inactive) | 19.1 µM (inactive) | 18.3 µM (inactive) | 20.6 µM (inactive) | 21.9 µM (inactive) | 28.6 µM (inactive) | 18.9 µM (inactive) | 29 µM (inactive) | 22.5 µM (inactive) | 20.2 µM (inactive) | 28.8 µM (inactive) | 29.8 µM (inactive) | 17 µM (inactive) | 17.8 µM (inactive) | 19.9 µM (inactive) | 17.3 µM (inactive)
Nc1c2c(nc3ccccc13)-c1ccccc1NCCC2 | 59.7 µM (inactive) | 78.2 µM (inactive) | 47.4 µM (inactive) | 18.3 µM (inactive) | 47.3 µM (inactive) | 26.1 µM (inactive) | 36.6 µM (inactive) | 19 µM (inactive) | 15.3 µM (inactive) | 30.8 µM (inactive) | 53 µM (inactive) | 26.4 µM (inactive) | 13.6 µM (inactive) | 17.7 µM (inactive) | 38.3 µM (inactive) | 20.4 µM (inactive) | 23.3 µM (inactive) | 15.1 µM (inactive) | 42.2 µM (inactive) | 34.2 µM (inactive)
